We go through one molecule from patent EP1032561B1, “SUBSTITUTED OXIMES AS NEUROKININ ANTAGONISTS” (SCHERING CORPORATION, priority 1997, dated 1999).

In one experiment the target is NK1 receptor (Homo sapiens, UniProt P25103). In words: neurokinin receptor binding assay, NK1. The text has this: (§1) The in vitro and in vivo activity of the compounds of formula I can be determined by various procedures known in the art, such as a test for their ability to inhibit the activity of the NK1 agonist Substance P, an isolated hamster trachea NK2 assay, a test of the effect of NK1 antagonists on Substance P-induced airway microvascular leakage, measurement of NK2 activity in vivo in guinea pigs, measurement of bronchoconstriction due to NKA, and neurokinin receptor binding assay(s). Typical procedures are described in WO96/34857, published November 7, 1996. NK3 activity is determined by following a procedure similar to that described in the literature, e.g., Molecular Pharmacol., 48 (1995), p. 711-716.
(§2) % Inhibition is the difference between the percent of maximum specific binding (MSB) and 100%. The percent of MSB is defined by the following equation, wherein "dpm" is disintegrations per minute: % MSB =((dpm of unknown) - (dpm of nonspecific binding))/((dpm of total binding) - (dpm of nonspecific binding))X 100 [formula]

Another experiment addresses T1, NK2 receptor (Homo sapiens, UniProt P21452).
T1 sequence (P21452 1-398): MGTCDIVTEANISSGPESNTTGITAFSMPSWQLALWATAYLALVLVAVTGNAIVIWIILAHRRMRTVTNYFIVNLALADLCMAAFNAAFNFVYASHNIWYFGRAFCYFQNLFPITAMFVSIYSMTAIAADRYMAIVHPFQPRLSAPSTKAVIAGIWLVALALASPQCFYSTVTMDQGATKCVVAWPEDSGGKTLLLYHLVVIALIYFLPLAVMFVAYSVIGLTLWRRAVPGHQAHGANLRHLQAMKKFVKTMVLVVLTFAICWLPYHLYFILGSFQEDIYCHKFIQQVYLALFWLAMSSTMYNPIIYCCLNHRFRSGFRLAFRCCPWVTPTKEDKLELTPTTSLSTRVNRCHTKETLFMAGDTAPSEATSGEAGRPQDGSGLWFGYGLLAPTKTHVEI
In words: neurokinin receptor binding assay, NK2.
From the text: as §1, §2

Sequence of NK1 receptor (P25103 whole entry, species assumed): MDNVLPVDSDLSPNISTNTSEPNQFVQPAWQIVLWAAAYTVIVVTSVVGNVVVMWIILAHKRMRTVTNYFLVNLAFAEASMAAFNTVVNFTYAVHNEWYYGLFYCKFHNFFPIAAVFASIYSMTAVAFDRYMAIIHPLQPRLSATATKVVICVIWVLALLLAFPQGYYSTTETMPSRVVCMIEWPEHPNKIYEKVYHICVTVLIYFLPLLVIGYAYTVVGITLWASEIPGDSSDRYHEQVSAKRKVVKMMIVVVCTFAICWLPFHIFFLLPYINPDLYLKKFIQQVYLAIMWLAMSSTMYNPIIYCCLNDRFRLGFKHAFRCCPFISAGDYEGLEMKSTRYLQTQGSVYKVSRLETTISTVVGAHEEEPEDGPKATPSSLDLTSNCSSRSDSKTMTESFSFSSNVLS

In general, Ki refers to a dissociation constant, usually derived from enzyme kinetics or from competition with a known ligand. Higher therefore signals lower affinity. Turning to `CON=C(CN(C)C(=O)c1cc(C(F)(F)F)cc(C(F)(F)F)c1)C(CCN1CCC(O)(c2ccccc2)CC1)c1ccc(Cl)c(Cl)c1` (centres unmarked) [Example 11], the Ki is 3.6 nM at NK1 receptor and 9.2 nM on NK2 receptor.
